According to US4032633A, “Polypeptides” (Imperial Chemical Industries Limited, priority 1974, dated 1977):

System: secretion of acidic gastric juice stimulated with histamine
Test: Inhibition of histamine-stimulated secretion of acidic gastric juice in dogs with a Heidenhain pouch, single intravenous injection
Assay type: in vivo, dog
Details: column fractions or products assayed in histamine-stimulated pouch dogs
Method: This test is used to determine the biological potency of the products, which is defined as the amount of the product expressed in μg./kg. which, on administration by intravenous injection to a dog provided with a Heidenhain pouch and whose secretion of gastric acid is stimulated to 60-89% of the maximum level of secretion by an infusion of histamine, causes a 50-70% inhibition of that acid secretion. Some variation in the biological potency of a particular sample is found if it is measured in different dogs and on different occasions, and so the result is best expressed as a dose range. The physiological effect of inhibiting the secretion of acidic gastric juice is of value in the treatment of duodenal ulcers, and under the test conditions, no serious toxic effects were observed. The polypeptides also show ulcer healing properties in a standard test. […]
Dogs were prepared with separated denervated fundic pouches, and a subcutaneous infusion of histamine was used to stimulate gastric secretion to approximately 60-80% of the maximal rate [usually an infusion of a solution of 600 μg. of histamine (expressed as base) in 0.48 ml. per hour was adequate]. […]
The specific activity may be determined from the results obtained for several different doses.

Row | Substance | biological activity (inhibition of gastric secretion), in words
1 | material in fractions 38-52: hexapeptide liberated from β-urogastrone: Glu 1, Leu 1, Lys 1, Trp 2, Arg 1, lysine at the N-terminus (KWWELR; Epidermal growth factor; UniProt P01133 1018-1023, looked up, fragment) | biologically inactive
2 | material in fractions 49-65: pentapeptide liberated from γ-urogastrone: Glu 1, Leu 1, Lys 1, Trp 2, lysine at the N-terminus (KWWEL; Epidermal growth factor; UniProt P01133 1018-1022, looked up, fragment) | biologically inactive
